Experimental data published in patent publication US11512085B2, “Heteroaryl compound having drug activity” (SHANGHAI DUDE MEDICAL TECHNOLOGY CO., LTD, priority 2017, dated 2022).
One block for each compound: values may come before it.

Experiments:
[1] = Human liver microsome stability test; assay type: in vitro ADME; conditions: for Remaining (*NCF = 60 min): HLM 0.5, 60 min, no co-factor; for Remaining (T = 60 min): HLM 0.5, 60 min with NADPH regenerating system; for half-life at 1 µM / microsomal CLint at 1 µM / CLint scaled at 1 µM: human, liver microsomes, pH 7.4; for half-life at 1 µM: HLM 0.5 (0.5 mg protein/mL); for microsomal CLint at 1 µM / CLint scaled at 1 µM: HLM 0.5; for microsomal CLint at 1 µM: read-out: CLint(mic); for CLint scaled at 1 µM: scaled from CLint(mic)
Method: (§1) Preparation of Buffer Solution:
(§2) 1. 100 mM potassium phosphate buffer solution, pH of 7.4
(§3) Preparation of Test Compound Solution:
(§4) 1. A test compound solution (10 mM, 5 μL) was diluted with a methanol solution (495 μL), and a 100 μM solution was prepared;
(§5) 2. Preparation of a working solution: the above solution (50 μL) was diluted with the potassium phosphate buffer solution (450 μL, 100 mM) so as to obtain diluents (10 μM).
(§6) NADPH Regeneration System (Final Concentration 1 Unit/mL of Isocitrate Dehydrogenase):
(§7) 1. beta-NADP, supplier: sigma Cat. No. N0505
(§8) 3. isocitrate dehydrogenase, supplier: sigma Cat. No. 12002
(§9) Cold acetonitrile containing 100 ng/mL of tolbutamide and 100 ng/mL of labetalol serves as an internal standard
(§10) 1. a 10 μL/well of working solution was added into plates (T0, T5, T10, T20, T30, T60, NCF60) beyond the blank;
(§11) 2. a 80 μL/well of microsome solution was added, and incubation was performed at 37° C. for 10 min;
(§12) 3. a 10 μL of 100 mM phosphate buffer solution was added into each well of an NCF60 plate, the plate was placed in a warm bath at 37° C., and timing started;
(§13) 4. a 10 μL/well of NADPH regeneration system was added after preheating, and a reaction started;
(§14) 5. incubation was performed at 37° C., and timing started
(§15) 6. a 300 μL/well of stop solution was added (4° C., containing 100 ng/mL of tolbutamide and 100 ng/mL of labetalol) to end the reaction;
(§16) 7. the plate was shaken for 10 min;
(§17) 8. centrifugation was performed at 4° C. at a rotation speed of 4000 rpm; and
(§18) 9. sample LC/MS/MS detection was performed.
(§19) Data Analysis Use Equation of First Order Kinetics to Calculate t½ and Clint(Mic): […]
(§20) equation of first order kinetics: […]

[2] = target: Lck (Homo sapiens, UniProt P06239); test: Btk selectivity over Lck (same kinase method, Btk replaced); assay type: biochemical; conditions: ratio of IC50 values
Lck, sequence (P06239 whole entry): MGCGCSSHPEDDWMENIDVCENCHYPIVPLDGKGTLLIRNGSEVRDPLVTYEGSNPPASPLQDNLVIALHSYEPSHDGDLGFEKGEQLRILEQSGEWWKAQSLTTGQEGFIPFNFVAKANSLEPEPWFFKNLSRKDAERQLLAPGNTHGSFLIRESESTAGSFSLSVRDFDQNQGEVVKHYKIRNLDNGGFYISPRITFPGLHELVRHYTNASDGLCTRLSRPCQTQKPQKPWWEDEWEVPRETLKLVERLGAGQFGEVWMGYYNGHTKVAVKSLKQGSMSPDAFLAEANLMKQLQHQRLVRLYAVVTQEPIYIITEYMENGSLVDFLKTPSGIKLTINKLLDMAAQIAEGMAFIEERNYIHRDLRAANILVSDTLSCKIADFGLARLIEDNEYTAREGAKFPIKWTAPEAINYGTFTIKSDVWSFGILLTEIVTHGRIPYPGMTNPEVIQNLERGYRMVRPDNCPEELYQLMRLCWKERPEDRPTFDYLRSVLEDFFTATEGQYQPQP
Method: (§21) Other kinases (e.g., inhibitory activity of Lck and LynA is determined by replacing the Btk with various kinases and performing operations the same as that in the above method).

[3] = Rat liver microsome stability test; assay type: in vitro ADME; conditions: for Remaining (*NCF = 60 min): RLM 0.5, 60 min, no co-factor; for Remaining (T = 60 min): RLM 0.5, 60 min with NADPH regenerating system; for half-life at 1 µM / microsomal CLint at 1 µM / CLint scaled at 1 µM: rat, liver microsomes, pH 7.4; for half-life at 1 µM: RLM 0.5 (0.5 mg protein/mL); for microsomal CLint at 1 µM / CLint scaled at 1 µM: RLM 0.5; for microsomal CLint at 1 µM: read-out: CLint(mic); for CLint scaled at 1 µM: scaled from CLint(mic)
Method: as §1, §2, §3, §4, §5, §6, §7, §8, §9, §10, §11, §12, §13, §14, §15, §16, §17, §18, §19, §20

[4] = target: LynA (Homo sapiens, UniProt P07948); test: Btk selectivity over LynA (same kinase method, Btk replaced); assay type: biochemical; conditions: ratio of IC50 values
LynA, sequence (P07948 whole entry): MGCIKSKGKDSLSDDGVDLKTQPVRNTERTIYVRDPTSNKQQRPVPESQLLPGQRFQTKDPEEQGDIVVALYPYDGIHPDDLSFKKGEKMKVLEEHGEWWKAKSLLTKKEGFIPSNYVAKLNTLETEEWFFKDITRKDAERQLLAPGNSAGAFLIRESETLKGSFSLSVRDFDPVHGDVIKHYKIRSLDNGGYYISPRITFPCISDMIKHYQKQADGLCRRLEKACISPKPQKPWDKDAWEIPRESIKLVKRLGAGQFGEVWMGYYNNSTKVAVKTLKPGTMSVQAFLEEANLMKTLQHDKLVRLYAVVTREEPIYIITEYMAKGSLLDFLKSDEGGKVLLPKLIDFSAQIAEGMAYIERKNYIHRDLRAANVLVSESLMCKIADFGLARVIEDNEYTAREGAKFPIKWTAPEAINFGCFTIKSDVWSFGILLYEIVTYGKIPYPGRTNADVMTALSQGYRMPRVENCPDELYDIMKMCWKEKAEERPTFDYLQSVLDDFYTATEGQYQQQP
Method: as §21

[5] = target: Btk (Homo sapiens, UniProt Q06187); test: Determination of Btk enzyme inhibitory activity; assay type: biochemical; conditions: 2 nM BTK
Btk, sequence (Q06187 whole entry): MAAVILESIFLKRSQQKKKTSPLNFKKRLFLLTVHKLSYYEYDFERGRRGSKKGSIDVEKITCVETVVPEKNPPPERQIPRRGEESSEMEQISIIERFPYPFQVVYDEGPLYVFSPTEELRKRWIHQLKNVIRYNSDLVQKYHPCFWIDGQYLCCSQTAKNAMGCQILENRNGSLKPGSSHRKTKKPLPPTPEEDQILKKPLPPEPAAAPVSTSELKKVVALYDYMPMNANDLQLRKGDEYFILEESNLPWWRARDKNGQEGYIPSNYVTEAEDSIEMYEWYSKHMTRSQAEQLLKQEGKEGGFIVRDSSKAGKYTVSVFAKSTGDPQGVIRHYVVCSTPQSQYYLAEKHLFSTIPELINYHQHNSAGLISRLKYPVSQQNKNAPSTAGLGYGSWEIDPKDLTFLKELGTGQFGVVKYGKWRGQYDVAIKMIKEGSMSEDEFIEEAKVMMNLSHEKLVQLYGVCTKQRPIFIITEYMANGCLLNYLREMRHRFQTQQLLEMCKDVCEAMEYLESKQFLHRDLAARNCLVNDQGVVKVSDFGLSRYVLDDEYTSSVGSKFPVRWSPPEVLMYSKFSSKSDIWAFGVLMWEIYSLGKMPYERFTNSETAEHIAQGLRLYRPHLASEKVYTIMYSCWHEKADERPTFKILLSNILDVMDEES
Method: Determination of Btk Enzyme Inhibitory Activity
Buffer solution: 50 mM Hepes pH 7.0, 0.1 mM Orthovanadate, 5 mM MgCl2, 0.01% of BSA;
1 mM TK-peptide, […], 50 nM SEB;
Pre-incubation for 15 minutes;
Reaction at 23° C. for 90 minutes;
Color Development Reaction:
Developing buffer solution: 50 mM Hepes pH8.0, 0.8 M KF, 20 mM EDTA, 0.01% BSA;
Reaction at 23° C. for 60 minutes;

[6] = People; FDA data; cited from earlier work

SMILES: C=CC(=O)N(C)N1CCCC(n2nc(-c3ccc(Oc4ccccc4)cc3)c3c(N)ncnc32)C1 (stereo not shown) [Embodiment 8]
Remaining (*NCF = 60 min) [1]: 105.8% | Remaining (T = 60 min) [1]: 0.0% | half-life at 1 µM [1]: 3.7 min | microsomal CLint at 1 µM [1]: 374 µL/min/mg | CLint scaled at 1 µM [1]: 336 mL/min/kg | Lck[IC50]/Btk[IC50] [2]: 139 | Remaining (*NCF = 60 min) [3]: 111.2% | Remaining (T = 60 min) [3]: 0.2% | half-life at 1 µM [3]: 3.8 min | microsomal CLint at 1 µM [3]: 366 µL/min/mg | CLint scaled at 1 µM [3]: 658 mL/min/kg | LynA[IC50]/Btk[IC50] [4]: 62.5

SMILES: C=CC(=O)N1CCC[C@@H](n2nc(/C=C/c3ccc(Cl)cc3)c3c(N)ncnc32)C1 [Embodiment 14, 1-(3-(4-amino-3-(4-chlorophenylvinyl)-1H-pyrazolo[3,4-D]pyrimidine-1-yl)-piperidyl)-2-propylene-1-one]
IC50 [5]: 5.82 nM

SMILES: C=CC(=O)N1CCC[C@@H](n2nc(/C=C/c3cccc(Cl)c3)c3c(N)ncnc32)C1 [Embodiment 15, 1-(3-(4-amino-3-(3-chlorophenylvinyl)-1H-pyrazolo[3,4-D]pyrimidine-1-yl)-piperidyl)-2-propylene-1-one]
IC50 [5]: 6.9 nM

SMILES: C=CC(=O)N1CCCC(n2nc(/C=C/c3ccccc3Cl)c3c(N)ncnc32)C1 (stereo not shown) [Embodiment 16, 1-(3-(4-amino-3-(2-chlorophenylvinyl)-1H-pyrazolo[3,4-D]pyrimidine-1-yl)-piperidyl)-2-propylene-1-one]
IC50 [5]: 16.7 nM

SMILES: C=CC(=O)N1CCC[C@@H](n2nc(-c3ccc(-c4noc(C)n4)cc3)c3c(N)ncnc32)C1 [Embodiment 22, 1-(3-(4-amino-3-(4-(5-methyl-1,2,4-oxadiazole-3-yl)phenyl)-1H-pyrazolo[3,4-D]pyrimidine-1-yl)-1-piperidyl)-2-propylene-1-one]
IC50 [5]: 145 nM

SMILES: C=CC(=O)N1CCC[C@@H](n2nc(-c3ccc(-c4noc(CCCCl)n4)cc3)c3c(N)ncnc32)C1 [Embodiment 24, 1-(3-(4-amino-3-(4-(5-(3-chloropropyl)-1,2,4-oxadiazole-3-yl)phenyl)-1H-pyrazolo[3,4-D]pyrimidine-1-yl)-1-piperidyl)-2-propylene-1-one]
IC50 [5]: 78 nM

SMILES: C=CC(=O)N1CCC[C@@H](n2nc(-c3ccc(Oc4ccccc4)cc3)c3c(N)ncnc32)C1 [Ibrutinib]
bioavailability [6]: 2.9%

Continued, values first:

IC50 [5]: 0.64 nM
SMILES: C=CC(=O)N(C)N1CCC[C@@H](n2nc(-c3ccc(Oc4ccccc4)cc3)c3c(N)ncnc32)C1 [Embodiment 8]

Remaining (*NCF = 60 min) [1]: 93.1% | Remaining (T = 60 min) [1]: 14.0% | half-life at 1 µM [1]: 20.5 min | microsomal CLint at 1 µM [1]: 67.6 µL/min/mg | CLint scaled at 1 µM [1]: 60.8 mL/min/kg | Lck[IC50]/Btk[IC50] [2]: 420 | Remaining (*NCF = 60 min) [3]: 94.7% | Remaining (T = 60 min) [3]: 5.0% | half-life at 1 µM [3]: 13.7 min | microsomal CLint at 1 µM [3]: 101 µL/min/mg | CLint scaled at 1 µM [3]: 182 mL/min/kg | IC50 [5]: 0.46 nM | LynA[IC50]/Btk[IC50] [4]: 507
SMILES: C=CC(=O)N1CCCC(n2nc(/C=C/c3ccccn3)c3c(N)ncnc32)C1 (stereo not shown) [Embodiment 13, 1-(3-(4-amino-3-(2-2-pyridyl)vinyl-1H-pyrazolo[3,4-D]pyrimidine-1-yl)-piperidyl)-2-propylene-1-one]

IC50 [5]: > 1000 nM
SMILES: C=CC(=O)NN1CCCC(n2c(=O)n(-c3ccc(Oc4ccccc4)cc3)c3c(N)ncnc32)C1 (stereo not shown) [Embodiment 29]

IC50 [5]: 76.8 nM
SMILES: C=CC(=O)N(C)N1CCC[C@@H](n2c(=O)n(-c3ccc(Oc4ccccc4)cc3)c3c(N)ncnc32)C1 [Embodiment 30]

IC50 [5]: 209 nM
SMILES: C=CC(=O)N1CCCC(n2c(=O)n(-c3ccc(-c4noc(C)n4)cc3)c3c(N)ncnc32)C1 (stereo not shown) [Embodiment 34, 9-(1-allylpropionylpiperidine-3-yl)-6-amino-7-(4-(5-methyl-1,2,4-oxadiazole-3-yl)phenyl)-7,9-dihydro-8H-purine-8-one]

IC50 [5]: 176 nM
SMILES: C=CC(=O)N1CCCC(n2c(=O)n(-c3ccc(-c4noc(C=C)n4)cc3)c3c(N)ncnc32)C1 (stereo not shown) [Embodiment 35, 9-(1-allylpropionylpiperidine-3-yl)-6-amino-7-(4-(5-vinyl-1,2,4-oxadiazole-3-yl)phenyl)-7,9-dihydro-8H-purine-8-one]

IC50 [5]: > 1000 nM
SMILES: C=CC(=O)N1CCC[C@@H](n2c(=O)n(-c3ccc(-c4noc(CCCCl)n4)cc3)c3c(N)ncnc32)C1 [Embodiment 36, 9-(1-allylpropionylpiperidine-3-yl)-6-amino-7-(4-(5-(3-chloropropyl)-1,2,4-oxadiazole-3-yl)phenyl)-7,9-dihydro-8H-purine-8-one]

IC50 [5]: 23 nM
SMILES: C=CC(=O)NN1CCC[C@@H](n2c(=O)n(-c3ccc(C(=O)Nc4ccccn4)cc3)c3c(N)ncnc32)C1 [Embodiment 40, 4-(9-(1-acrylamidepiperidine-3-yl)-6-amino-8-oxo-8,9-dihydro-7H-purine-7-yl)-N-(pyridin-2-yl)benzamide]

IC50 [5]: 0.9 nM
SMILES: C=CC(=O)NN1CCC[C@@H](n2nc(-c3ccc(Oc4ccccc4F)cc3)c3c(N)ncnc32)C1 [Embodiment 42]

IC50 [5]: 5.1 nM
SMILES: C=CC(=O)NN1CCCC(c2nc(-c3ccc(Oc4ccccc4)cc3)c3c(N)nccn23)C1 (stereo not shown) [Embodiment 51, N-(3-(8-amino-1-(4-phenoxyphenyl)imidazo[1,5-a]pyrazine-3-yl)-1-piperidyl) acrylamide]
